The numbers were not newly measured in patent publication US20150216850A1 (priority 2012, published 2015), which cites them from elsewhere.

For data set [1], the system named is Huntington's disease patients.
Data set [2] deals with patients with HD.
Data set [3] relates to Huntington's disease patients. The settings on record: twice-daily doses of 45 mg over 12 weeks.

With `CCCN1CCC(c2cccc(S(C)(=O)=O)c2)CC1` [pridopidine], the “tertiary endpoint UHDRS-TMS and individual items within the mMS (gait, dysarthria)” value in data set [1] (45 mg daily or 90 mg daily for 6 months) is “statistically significant effect”. The “primary endpoint: effect on subset of motor symptoms defined in the mMS” value in data set [1] (45 mg daily or 90 mg daily, at 26 weeks) is reported as “not met”. Also, the “symptomatic relief (hand movements, gait and balance)” value in data set [2] was “significant symptomatic relief”. Further, the “effect on total motor function” value in data set [3] is given as “significant effect”.
